Laboratory results published in ChEMBL document CHEMBL1155836, “Discovery of imidazole carboxamides as potent and selective CCK1R agonists” (Bioorg Med Chem Lett, 2008).
Activity calls are given as the source filed them. The calls are words filed in the database; no cut-off is given here.

Legend:
[1] = molecular target: T1, Cholecystokinin receptor type A (Homo sapiens, UniProt P32238); assay: Inhibition of human CCK1 receptor
T1 sequence (P32238 whole entry): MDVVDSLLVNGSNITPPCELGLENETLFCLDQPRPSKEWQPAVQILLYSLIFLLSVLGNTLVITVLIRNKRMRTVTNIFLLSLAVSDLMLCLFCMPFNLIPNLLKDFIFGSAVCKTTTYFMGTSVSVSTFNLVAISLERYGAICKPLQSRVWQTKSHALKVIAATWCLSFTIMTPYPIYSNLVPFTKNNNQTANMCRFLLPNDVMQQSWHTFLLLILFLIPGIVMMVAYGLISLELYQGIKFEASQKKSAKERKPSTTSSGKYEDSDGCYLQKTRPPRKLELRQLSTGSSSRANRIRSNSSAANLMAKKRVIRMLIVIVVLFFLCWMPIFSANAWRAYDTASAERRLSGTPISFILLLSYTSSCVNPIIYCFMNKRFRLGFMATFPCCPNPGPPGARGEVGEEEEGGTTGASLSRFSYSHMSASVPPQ

[2] = molecular target: T2, Gastrin/cholecystokinin type B receptor (Homo sapiens, UniProt P32239); assay: Inhibition of human CCK2 receptor
T2 sequence (P32239 whole entry): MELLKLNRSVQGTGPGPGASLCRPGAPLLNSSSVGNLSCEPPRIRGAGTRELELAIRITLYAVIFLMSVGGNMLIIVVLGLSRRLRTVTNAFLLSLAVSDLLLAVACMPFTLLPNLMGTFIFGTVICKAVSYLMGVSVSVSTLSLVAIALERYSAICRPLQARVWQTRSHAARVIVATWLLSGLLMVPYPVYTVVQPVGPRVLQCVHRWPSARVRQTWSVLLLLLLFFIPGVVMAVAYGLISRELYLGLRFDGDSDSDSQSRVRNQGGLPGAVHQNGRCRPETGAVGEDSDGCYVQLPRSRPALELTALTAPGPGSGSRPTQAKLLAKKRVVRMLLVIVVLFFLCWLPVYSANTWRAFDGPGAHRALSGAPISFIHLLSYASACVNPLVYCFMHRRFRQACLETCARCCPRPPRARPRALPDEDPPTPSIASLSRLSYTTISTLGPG

[3] = molecular target: T1, Cholecystokinin receptor type A; assay: Agonist activity against human CCK1 receptor; type: functional
[4] = molecular target: T3, Cholecystokinin receptor type A (Homo sapiens) (UniProt P32238); assay: Agonist activity against human CCK1 receptor assessed as receptor activation at 10000 nM; type: functional
T3 sequence (whole entry): T1 sequence (P32238 whole entry)

[5] = molecular target: T4, Gastrin/cholecystokinin type B receptor (Homo sapiens) (UniProt P32239); assay: Agonist activity against human CCK2 receptor assessed as receptor activation at 10000 nM; type: functional
T4 sequence (whole entry): T2 sequence (P32239 whole entry)

[6] = molecular target: T4, Gastrin/cholecystokinin type B receptor (Homo sapiens); assay: Inhibition of human CCK2 receptor at 10000 nM
[7] = molecular target: T4, Gastrin/cholecystokinin type B receptor (Homo sapiens); assay: Agonist activity against human CCK2 receptor; type: functional
Mus musculus [8] = assay: Reduction in overnight food intake in lean mouse at 3 mg/kg, po; type: functional; design: scale not given: the % may be the effect or the level left
[9] = Oral bioavailability in mouse at 10 mg/kg; type: ADME, organism-based; conditions: in vivo
[10] = Clearance in mouse at 1.0 mg/kg, iv and 10 mg/kg, po; type: ADME, organism-based; conditions: in vivo
Mus musculus [11] = assay: Reduction in overnight food intake in lean mouse at 0.3 mg/kg, po; type: functional; design: scale not given: the % may be the effect or the level left
[12] = molecular target: Cholecystokinin receptor type A (Mus musculus, UniProt O08786); assay: Agonist activity against mouse CCK1 receptor; type: functional
[13] = Volume of distribution in mouse at 1.0 mg/kg, iv and 10 mg/kg, po; type: ADME, organism-based; conditions: in vivo
[14] = Half life in mouse at 1.0 mg/kg, iv and 10 mg/kg, po; type: ADME, organism-based; conditions: in vivo
Mus musculus [15] = assay: (§1) Cmax in mouse at 1.0 mg/kg, iv and 10 mg/kg, po; type: ADME, organism-based; conditions: in vivo
[16] = as §1; type: ADME, organism-based; conditions: in vivo
Mus musculus [17] = assay: Gallbladder emptying activity in mouse assessed as reduction of gallbladder weight at 0.3 mg/kg, po; type: functional; design: scale not given: the % may be the effect or the level left
Mus musculus [18] = assay: Gallbladder emptying activity in mouse assessed as reduction of gallbladder weight at 0.001 mg/kg, po; type: functional; design: scale not given: the % may be the effect or the level left
Mus musculus [19] = assay: Reduction in overnight food intake in wild-type mouse at 10 mg/kg; type: functional, organism-based; design: dose 10 mg/kg
Mus musculus [20] = assay: Reduction in overnight food intake in CCK1 receptor deficient mouse at 10 mg/kg; type: functional, organism-based; design: dose 10 mg/kg
Mus musculus [21] = assay: Gallbladder emptying activity in mouse assessed as reduction of gallbladder weight at 0.1 mg/kg, po; type: functional, organism-based; design: dose 0.1 mg/kg

Cholecystokinin receptor type A (Mus musculus, UniProt O08786), sequence (O08786 whole entry, looked up): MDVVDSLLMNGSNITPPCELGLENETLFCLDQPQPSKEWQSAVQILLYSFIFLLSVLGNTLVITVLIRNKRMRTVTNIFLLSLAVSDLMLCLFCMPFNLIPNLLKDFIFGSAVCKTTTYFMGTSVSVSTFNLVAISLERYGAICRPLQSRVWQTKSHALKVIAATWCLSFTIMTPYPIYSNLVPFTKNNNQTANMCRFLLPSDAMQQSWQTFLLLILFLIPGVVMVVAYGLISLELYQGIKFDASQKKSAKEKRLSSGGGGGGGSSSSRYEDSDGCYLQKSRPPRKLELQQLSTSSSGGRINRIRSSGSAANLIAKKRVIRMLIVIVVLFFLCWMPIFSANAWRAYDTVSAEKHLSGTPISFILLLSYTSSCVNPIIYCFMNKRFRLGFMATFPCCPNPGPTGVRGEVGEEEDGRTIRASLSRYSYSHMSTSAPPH

O=C(O)c1cc(N2CCN(C(=O)c3cn(-c4ccc5c(c4)OCCO5)c(-c4ccc(F)cc4)n3)CC2)cc2ccccc12 [listing 1 of 2 here]
IC50 [1]: 0.03 nM | IC50 [2]: > 10000 nM | EC50 [3]: 0.093 nM

O=C(c1cn(-c2ccc3c(c2)OCCO3)c(-c2ccc(F)cc2)n1)N1CCN(c2cnc3ccccc3c2)CC1
Activity [4]: 101% | Activity [5]: < 36% | IC50 [1]: 0.12 nM | IC50 [2]: > 10000 nM | EC50 [3]: 0.26 nM | inhibition [6]: < 24% | Activity [7]: inactive

CCOc1cccc(-n2cc(C(=O)N3CCN(c4cc(C(=O)[O-])c5ccccc5c4)CC3)nc2-c2ccc(C)cc2)c1.[Na+]
Activity (Mus musculus [8]): 78% | bioavailability [9]: 43% | clearance [10]: 3.1 mL/min/kg | Activity (Mus musculus [11]): 29% | EC50 [12]: 0.78 nM | Vd [13]: 0.56 L/kg | half-life [14]: 3.4 h | Cmax (Mus musculus [15]): 4900 nM

CCOc1cccc(-n2cc(C(=O)N3CCN(c4cc(C(=O)O)c5ccccc5c4)CC3)nc2-c2ccc(C)cc2)c1 [listing 1 of 2 here]
bioavailability [9]: 7% | IC50 [1]: 0.12 nM | clearance [10]: 5.3 mL/min/kg | IC50 [2]: > 10000 nM | Vd [13]: 0.47 L/kg | half-life [14]: 3.5 h | EC50 [3]: 0.094 nM | Cmax [16]: 280 nM

CCOc1cccc(-n2cc(C(=O)N3CCN(c4cnc5ccccc5c4)CC3)nc2-c2ccc(C)cc2)c1 [listing 1 of 3 here]
IC50 [1]: 0.45 nM | IC50 [2]: > 10000 nM | Activity (Mus musculus [17]): 59% | EC50 [3]: 0.73 nM

O=C(O)C(F)(F)F.O=C(O)c1cc(N2CCN(C(=O)c3cn(-c4ccc5c(c4)OCCO5)c(-c4ccc(F)cc4)n3)CC2)cc2ccccc12
Activity (Mus musculus [8]): 96% | Activity (Mus musculus [11]): 16% | EC50 [12]: 0.14 nM | Activity (Mus musculus [18]): 88%

Cc1ccc(-c2nc(C(=O)N3CCN(c4cc(C(=O)O)c5ccccc5c4)CC3)cn2-c2ccc3c(c2)OCCO3)c(F)c1
Activity [4]: 71% | Activity [5]: < 36% | IC50 [1]: 0.03 nM | IC50 [2]: > 10000 nM | EC50 [3]: 0.077 nM | inhibition [6]: < 24% | Activity [7]: inactive

CCOc1cccc(-n2cc(C(=O)N3CCN(c4cc(C(=O)O)c5ccccc5c4)CC3)nc2-c2ccc(F)cc2)c1.O=C(O)C(F)(F)F
Activity (Mus musculus [8]): 73% | EC50 [12]: 1.5 nM | Activity (Mus musculus [18]): 69%

CCOc1cccc(-n2cc(C(=O)N3CCN(c4cc(C(=O)O)c5ccccc5c4)CC3)nc2-c2ccc(C)cc2F)c1.O=C(O)C(F)(F)F
Activity (Mus musculus [8]): 86% | Activity (Mus musculus [11]): 13% | EC50 [12]: 0.3 nM | Activity (Mus musculus [18]): 77%

CCOc1cccc(-n2cc(C(=O)N3CCN(c4cnc5ccccc5c4)CC3)nc2-c2ccc(F)cc2)c1
Activity [4]: 92% | Activity [5]: < 36% | IC50 [1]: 0.6 nM | IC50 [2]: > 10000 nM | EC50 [3]: 0.25 nM | inhibition [6]: < 24% | Activity [7]: inactive

CCOc1cccc(-n2cc(C(=O)N3CCN(c4cc(C(=O)O)c5ccccc5c4)CC3)nc2-c2ccc(C)cc2F)c1 [listing 1 of 2 here]
Activity [4]: 73% | Activity [5]: < 36% | Activity (Mus musculus [19]): Active | Activity (Mus musculus [20]): inactive | inhibition [6]: < 24% | Activity [7]: inactive

CCOc1cccc(-n2cc(C(=O)N3CCN(c4cc(C(=O)O)c5ccccc5c4)CC3)nc2-c2ccc(C)cc2)c1.O=C(O)C(F)(F)F
Activity (Mus musculus [8]): 82% | Activity (Mus musculus [11]): 18% | EC50 [12]: 1.3 nM | Activity (Mus musculus [18]): 72%

CCOc1cccc(-n2cc(C(=O)N3CCN(c4cnc5ccccc5c4)CC3)nc2-c2ccc(C)cc2)c1 [listing 2 of 3 here]
EC50 [12]: 2.1 nM

CCOc1cccc(-n2cc(C(=O)N3CCN(c4cnc5ccccc5c4)CC3)nc2-c2ccc(C)cc2)c1 [listing 3 of 3 here]
Activity [4]: 105% | Activity [5]: < 36% | Activity (Mus musculus [21]): inactive | inhibition [6]: < 24% | Activity [7]: inactive

CCOc1cccc(-n2cc(C(=O)N3CCN(c4cc(C(=O)O)c5ccccc5c4)CC3)nc2-c2ccc(C)cc2F)c1 [listing 2 of 2 here]
bioavailability [9]: 22% | IC50 [1]: 0.06 nM | clearance [10]: 10.4 mL/min/kg | IC50 [2]: > 10000 nM | Vd [13]: 0.59 L/kg | half-life [14]: 1.7 h | EC50 [3]: 0.056 nM | Cmax [16]: 820 nM

CCOc1cccc(-n2cc(C(=O)N3CCN(c4cnc5ccccc5c4)CC3)nc2-c2ccc(C)cc2F)c1
Activity [4]: 86% | Activity [5]: < 36% | IC50 [1]: 0.24 nM | IC50 [2]: > 10000 nM | EC50 [3]: 0.13 nM | inhibition [6]: < 24% | Activity [7]: inactive

CCOc1cccc(-n2cc(C(=O)N3CCN(c4cnc5ccccc5c4)CC3)nc2-c2ccccc2F)c1
Activity [4]: 89% | Activity [5]: < 36% | IC50 [1]: 0.57 nM | IC50 [2]: > 10000 nM | EC50 [3]: 0.53 nM | inhibition [6]: < 24% | Activity [7]: inactive

CCOc1cccc(-n2cc(C(=O)N3CCN(c4cc(C(=O)O)c5ccccc5c4)CC3)nc2-c2ccc(F)cc2)c1 [listing 1 of 2 here]
Activity [4]: 95% | Activity [5]: < 36% | inhibition [6]: < 24% | Activity [7]: inactive

Cc1ccc(-c2nc(C(=O)N3CCN(c4cc(C(=O)O)c5ccccc5c4)CC3)cn2-c2ccc3c(c2)OCCO3)cc1
Activity [4]: 107% | Activity [5]: < 36% | IC50 [1]: 0.14 nM | IC50 [2]: > 10000 nM | EC50 [3]: 0.14 nM | inhibition [6]: < 24% | Activity [7]: inactive

O=C(O)c1cc(N2CCN(C(=O)c3cn(-c4ccc5c(c4)OCCO5)c(-c4ccc(F)cc4)n3)CC2)cc2ccccc12 [listing 2 of 2 here]
Activity [4]: 97% | Activity [5]: < 36% | inhibition [6]: < 24% | Activity [7]: inactive

CCOc1cccc(-n2cc(C(=O)N3CCN(c4cc(C(=O)O)c5ccccc5c4)CC3)nc2-c2ccc(F)cc2F)c1
Activity [4]: 76% | Activity [5]: < 36% | IC50 [1]: 0.07 nM | IC50 [2]: > 10000 nM | EC50 [3]: 0.053 nM | inhibition [6]: < 24% | Activity [7]: inactive

Cc1ccc(-c2nc(C(=O)N3CCN(c4cnc5ccccc5c4)CC3)cn2-c2ccc3c(c2)OCCO3)cc1
Activity [4]: 94% | Activity [5]: < 36% | IC50 [1]: 0.2 nM | IC50 [2]: > 10000 nM | EC50 [3]: 0.12 nM | inhibition [6]: < 24% | Activity [7]: inactive

CCOc1cccc(-n2cc(C(=O)N3CCN(c4cc(C(=O)O)c5ccccc5c4)CC3)nc2-c2ccc(C)cc2)c1 [listing 2 of 2 here]
Activity [4]: 105% | Activity [5]: < 36% | Activity (Mus musculus [19]): Active | Activity (Mus musculus [20]): inactive | inhibition [6]: < 24% | Activity [7]: inactive

CCOc1cccc(-n2cc(C(=O)N3CCN(c4cc(C(=O)O)c5ccccc5c4)CC3)nc2-c2ccc(F)cc2)c1 [listing 2 of 2 here]
bioavailability [9]: 33% | IC50 [1]: 0.08 nM | clearance [10]: 6.4 mL/min/kg | IC50 [2]: > 10000 nM | Vd [13]: 0.73 L/kg | half-life [14]: 2.7 h | EC50 [3]: 0.048 nM | Cmax [16]: 1100 nM
